PubChem BioAssay AID2060903 (Molecular Pharmacology Branch, DTP, NCI, 2025)

Test system: 377384-186-R-J1-PDC complex spheroid viability
Assay: Anticancer human tumor 377384-186-R-J1-PDC patient-derived pancreatic carcinoma cell line growth inhibition [RAS]
Details: for IC50: curve of first compound; for viability, T/C: stronger effect = lower value
Source text: RAS pathway inhibitors in Combinations in Complex Spheroids
A high-throughput screen of multi-cell type tumor spheroids was designed to identify active combinations of RAS pathway inhibitors and targeted small molecules. Complex spheroids include a stromal component modeled by human endothelial cells (HUVEC) and fibroblasts modeled by human mesenchymal stem cells (MSCs). The concentration ranges selected for each drug and investigational agent were based upon clinically achievable concentrations if the clinical Cmax of the agent was known.
Compounds. The drugs and investigational agents: abemaciclib (NSC768073), cobimetinib (NSC768068), divarasib (GDC6063, NSC841802), docetaxel (NSC628503), GDC-1971 (RLY-1971, NSC841576), gemcitabine (NSC613327), inavolisib (NSC800729), ipatasertib (NSC767898), KB-0742 (NSC834161), MRTX-1133 (NSC836407), osimertinib (NSC779217), RMC-4630 (NSC839698), RMC-6236 (NSC851965), RMC-6291 (NSC852671), Ro-3306 (NSC812927), sapanisertib (NSC764658), SN-38 (NSC673596), staurosporine (NSC755774), SY5609 (NSC837396), and tovorafenib (DAY101, NSC766906), were obtained from the National Cancer Institute (NCI) Developmental Therapeutics Program Chemical Repository. The FDA-approved anticancer drug set is available from the NCI Developmental Therapeutics Program. […] The stock solutions were prepared in dimethyl sulfoxide (DMSO, Sigma-Aldrich, St. Louis, MO, cat. D2650) at 800-fold the tested concentration and stored at -70 degrees C prior to their use. All drugs and investigational agents were tested over a range starting from a high concentration at or near the clinical Cmax and decreasing in half-log increments. If the clinical Cmax for an agent had not been determined, the highest concentration tested was 10 microM.
Cell Culture. All cells were maintained in an incubator at 37 degrees C and 5% CO2 with 95% humidity. The PDC lines were cultured according to standard operating procedures established by the NCI PDMR. All PDCs were thawed and cultured in Matrigel-coated flasks prepared with a working solution of 1X Ham's F-12 nutrient mix, without supplementation (Invitrogen, Waltham, MA, cat. 11765054), 100 U/mL penicillin-streptomycin (Invitrogen, cat. 15140122), and 2.5% Matrigel (Corning Inc., Corning, NY, cat. 354248) for the first three passages. The 362531-283-R-J2-PDC and 782815-120-R-J1-PDC lines were cultured in 6C/Colon 1B media, which includes advanced DMEM/F-12 (Thermo Fisher Scientific, cat. 12634028), 10 mM HEPES (Thermo Fisher Scientific, cat. 15630080), 1X GlutaMAX supplement (Thermo Fisher Scientific, cat. 35050061), 0.1 mg/mL primocin (InvivoGen, San Diego, CA, cat. ant-pm-2), 10% defined fetal bovine serum, heat inactivated (HyClone Laboratories Inc., Logan, UT, cat. SH30070.03HI), 50% L-WRN conditioned media (ATCC, cat. CRL-3276), 1.25 mM N-Acetyl-L-cysteine (Sigma-Aldrich, cat. A9165), 10 mM nicotinamide (Sigma-Aldrich, cat. N0636), 1X B-27 supplement (Thermo Fisher Scientific, cat. 17504044), 1X N-2 supplement (Thermo Fisher Scientific, cat. 17502048), 50 ng/mL human EGF (Thermo Fisher Scientific, cat. PHG0311), and 10 microM Y-27632 dihydrochloride (Tocris Bioscience, cat. 1254). The K12877-001-R-J1-PDC line was cultured in 6I media, which includes all 6C/Colon 1B media plus 10 ng/mL human FGF-10 (PeproTech, cat. 100-26), 1 ng/mL human FGF-2 (PeproTech, cat. 100-18B), 1 µM prostaglandin E2 (Tocris Bioscience, cat. 2296), […] hydrocortisone (Sigma-Aldrich, cat. H4001), and […] bovine insulin (Sigma-Aldrich, cat. I6634). The K86415-001-R-J1-PDC line was cultured in 6D media, which includes all 6C/Colon 1B media components minus the L-WRN conditioned media. The 485176-168-R4-J1-PDC was cultured in PANC media, which includes all 6C/Colon 1B media plus 100 ng/mL human FGF-10 (PeproTech, cat. 100-26), 500 nM SB-431542 (Selleckchem, cat. S1067), and 10 nM gastrin (Tocris Bioscience, cat. 3006). […]
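Further: spheroids exposed to compounds for seven days before readout.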

CC1(O)CCCC1n1c(=O)c(C(F)F)cc2cnc(NC3CCN(S(C)(=O)=O)CC3)nc21 (configuration not stated) + CCn1c(-c2cccnc2C(C)OC)c2c3cc(ccc31)N1CCOC(CC(NC(=O)C(C(C)C)N(C)C(=O)C3(F)CCN(C(=O)C#CC(C)(C)N(C)C)CC3)C(=O)N3CCCC(N3)C(=O)OCC(C)(C)C2)C1
IC50 (second compound 0.000949 µM): 91.3 nM | IC50 (second compound 0.003 µM): 105 nM | IC50 (second compound 0.00949 µM): 122 nM | IC50 (second compound 0.03 µM): 111 nM | IC50 (second compound 0.0949 µM): 78.5 nM | IC50 (second compound 0.3 µM): 62.8 nM | viability, T/C (second compound 0.000949 µM, first compound 0.0316 µM): 79.6% | viability, T/C (second compound 0.000949 µM, first compound 0.1 µM): 46.6% | viability, T/C (second compound 0.000949 µM, first compound 0.316 µM): 28.9% | viability, T/C (second compound 0.000949 µM, first compound 1 µM): 28.6% | viability, T/C (second compound 0.000949 µM, first compound 3.16 µM): 35.1% | viability, T/C (second compound 0.000949 µM, first compound 10 µM): 9.26% | viability, T/C (second compound 0.003 µM, first compound 0.0316 µM): 76.8% | viability, T/C (second compound 0.003 µM, first compound 0.1 µM): 52.7% | viability, T/C (second compound 0.003 µM, first compound 0.316 µM): 28.8% | viability, T/C (second compound 0.003 µM, first compound 1 µM): 26.6% | viability, T/C (second compound 0.003 µM, first compound 3.16 µM): 34.8% | viability, T/C (second compound 0.003 µM, first compound 10 µM): 8.79% | viability, T/C (second compound 0.00949 µM, first compound 0.0316 µM): 84.6% | viability, T/C (second compound 0.00949 µM, first compound 0.1 µM): 55.6% | viability, T/C (second compound 0.00949 µM, first compound 0.316 µM): 27% | viability, T/C (second compound 0.00949 µM, first compound 1 µM): 29.7% | viability, T/C (second compound 0.00949 µM, first compound 3.16 µM): 36% | viability, T/C (second compound 0.00949 µM, first compound 10 µM): 7.91% | viability, T/C (second compound 0.03 µM, first compound 0.0316 µM): 67.4% | viability, T/C (second compound 0.03 µM, first compound 0.1 µM): 52.6% | viability, T/C (second compound 0.03 µM, first compound 0.316 µM): 24.9% | viability, T/C (second compound 0.03 µM, first compound 1 µM): 21.5% | viability, T/C (second compound 0.03 µM, first compound 3.16 µM): 34.7% | viability, T/C (second compound 0.03 µM, first compound 10 µM): 7.53% | viability, T/C (second compound 0.0949 µM, first compound 0.0316 µM): 71.3% | viability, T/C (second compound 0.0949 µM, first compound 0.1 µM): 46.5% | viability, T/C (second compound 0.0949 µM, first compound 0.316 µM): 23.9% | viability, T/C (second compound 0.0949 µM, first compound 1 µM): 22.2% | viability, T/C (second compound 0.0949 µM, first compound 3.16 µM): 33.4% | viability, T/C (second compound 0.0949 µM, first compound 10 µM): 6.19% | viability, T/C (second compound 0.3 µM, first compound 0.0316 µM): 68% | viability, T/C (second compound 0.3 µM, first compound 0.1 µM): 37.7% | viability, T/C (second compound 0.3 µM, first compound 0.316 µM): 18.6% | viability, T/C (second compound 0.3 µM, first compound 1 µM): 22.7% | viability, T/C (second compound 0.3 µM, first compound 3.16 µM): 34.7% | viability, T/C (second compound 0.3 µM, first compound 10 µM): 5.35%
